Measurements: PubChem BioAssay (NCI)
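Values below derive from 48-hour exposures of cells grown in 96-well plates, with endpoints linearly interpolated between the two concentrations bracketing the appropriate inhibition level. At the TGI there is no net growth.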

test system: U251 CNS; assay: NCI anticancer screen, dose series, 48 h

Structure (SMILES) | TGI
CNc1cc2c(c3ccccc13)C(CCl)CN2C(=O)c1cc2cc(OC)c(OC)c(OC)c2[nH]1 (stereo not drawn) | 0.133 µM
NCCCN1c2ccccc2Sc2ccc(Cl)cc21 | > 10 µM
CCOC(=O)c1cccc(N=Nc2nc[nH]c2/C=C/C(=O)OC)c1 | > 100 µM
O=C(O)CN1CCN2CCCCCN(CC1)CCN(CC(=O)O)CC2 | > 100 µM
Cc1cccc(C)c1NC(=O)C(Cc1c[nH]c2ccccc12)NC(=O)OCc1ccccc1 (stereo not drawn) | 47.2 µM
N#CC(C#N)=C1SC(=Nc2ccccc2)C(=Nc2ccccc2)N1c1ccccc1 | 41 µM
Cc1ccc(C2=CC(=O)OC(C[P+](c3ccccc3)(c3ccccc3)c3ccccc3)(c3ccccc3)O2)cc1 (stereo not drawn) | 34.8 µM
O=c1oc2cc(O)ccc2c(O)c1C(c1ccccc1)c1c(O)c2ccc(O)cc2oc1=O | > 100 µM
O=C1c2cc(-c3ccccc3)cnc2S(=O)(=O)N1c1ccc(Br)cc1 | 90.3 µM
O=C(NCP(=O)(Oc1ccccc1)Oc1ccccc1)OCc1ccccc1 | > 100 µM
CC(=NNC(=S)Nc1ccccc1)c1cccc(C(C)=NNC(=S)Nc2ccccc2)n1 | > 100 µM
CC(C)c1cc2c(c(O)c1O)[C@@]1(C(=O)O)CCCC(C)(C)[C@@H]1CC2 | 30.3 µM
COC1=CC(=O)c2c(c(-c3nc(C)cs3)cn2C)C1=O | > 100 µM
Cc1c(O)nc(-n2[nH]c3c(c2=O)CCCC3)[nH]c1=O | > 100 µM
C=CCn1c(=O)c(C(=O)Nc2nc(C34CC5CC(CC(C5)C3)C4)cs2)c(O)c2ccccc21 | > 100 µM
CCOS(C)(=O)=O | > 100 µM
C=CCc1cc(-c2nc(=S)[nH][nH]2)ccc1N=NNc1ccc(C(=O)O)cc1 | > 100 µM
O=C(O)CN1CCNCCN(CC(=O)O)CCN(CC(=O)O)CCNCC1 | > 100 µM
CC(NC(=O)Cc1ccccc1)NC(=O)C(C)C(=O)Nc1ccccc1 (stereo not drawn) | > 100 µM
CC(C)(C)[Si](C)(C)OCC1OC(n2ccc(=O)[nH]c2=O)C(O[Si](C)(C)C(C)(C)C)/C1=C/C#N (stereo not drawn) | > 44 µM
Nc1ccc(N=Nc2c(S(=O)(=O)O)cc3ccccc3c2S(=O)(=O)O)cc1 | > 100 µM

test system: IGROV1 ovarian; assay: NCI anticancer screen, dose series, 48 h

Structure (SMILES) | TGI
CC1=CCC([C@@](C)(O)CCCC(C)(C)N=C=S)CC1 (stereo partly drawn) | 40.3 µM
CCN1CN(c2ccccc2)C2(CCN(CC3COc4ccccc4O3)CC2)C1=O (stereo not drawn) | > 100 µM
N[C@@H](Cc1ccccc1)C(=O)N1CCC[C@@H]1P(=O)(Oc1ccccc1)Oc1ccccc1 | > 100 µM
C[C@H](CCC(=O)O)[C@H]1CC[C@H]2[C@@H]3C(=O)C[C@@H]4C[C@H](O)CC[C@]4(C)[C@H]3C[C@H](O)[C@]12C | > 100 µM
COc1ccc(-c2nc(SCC(=O)NNC(=S)Nc3ccccc3)[nH]c2-c2ccc(OC)cc2)cc1 | > 100 µM
COC(=O)/C=C\C(C#N)(C#N)N=Cc1ccc(C)cc1 | 26.3 µM
CC(c1ccccc1)N1CCN(C(C)c2ccccc2)CC1 (stereo not drawn) | > 100 µM
COc1ccc(N2C(=O)CC(=O)N(NC(=O)C(C)Oc3ccccc3C)C2=S)cc1 (stereo not drawn) | > 100 µM
COc1cc(OC)cc(C(=O)CC(=O)c2cc(OC)cc(OC)c2)c1 | > 100 µM
O=C1OC(C2Cc3ccc4ccccc4c3C2=O)c2ccccc21 (stereo not drawn) | > 100 µM
C/C(=N\N=C1/C(=O)OC(c2ccccc2)=C1C(=O)c1ccccc1)c1ccc([N+](=O)[O-])cc1 | > 100 µM
O=C(O)[C@H]1CCCN1CP(=O)(O)CN1CCC[C@@H]1C(=O)O | > 100 µM
O=S(=O)(O)C(CO)c1ccccc1 (stereo not drawn) (tested in a mixture with another compound) | > 100 µM
O=C1c2ccccc2C(=O)N1n1c(Cc2ccc([N+](=O)[O-])cc2)n[nH]c1=O | > 100 µM
Cc1nc(C)c(N2CCN([N+](=O)[O-])CC2)c(=O)[nH]1 | > 100 µM
Cc1nn(-c2ccccc2)c2c1C(c1cc3ccccc3nc1Cl)NC(=O)N2 (stereo not drawn) | 24.9 µM
Cc1cc(/N=C/c2ccc(N(C)C)cc2)n(-c2ccccc2)n1 | > 100 µM
O=C(/C=C/c1ccccc1)Oc1ccc(C(=O)/C=C/c2ccccc2)cc1 | 17.9 µM
COC(=O)C(Cc1ccc2c(c1)CCC2)Cc1ccc2c(c1)CCC2 | > 100 µM
C/C(C[n+]1ccccc1)=N\N=C(N)N | > 100 µM
O=[N+]([O-])C(=C(Nc1cccc2cccnc12)Nc1cccc2cccnc12)C(Cl)=C(Cl)Cl | > 100 µM

Structure (SMILES) | TGI
CNc1cc2c(c3ccccc13)C(CCl)CN2C(=O)c1cc2cc(OC)c(OC)c(OC)c2[nH]1 (stereo not drawn) | 0.128 µM
NCCCN1c2ccccc2Sc2ccc(Cl)cc21 | > 10 µM
CCOC(=O)c1cccc(N=Nc2nc[nH]c2/C=C/C(=O)OC)c1 | > 100 µM
O=C(O)CN1CCN2CCCCCN(CC1)CCN(CC(=O)O)CC2 | > 100 µM
Cc1cccc(C)c1NC(=O)C(Cc1c[nH]c2ccccc12)NC(=O)OCc1ccccc1 (stereo not drawn) | 73 µM
N#CC(C#N)=C1SC(=Nc2ccccc2)C(=Nc2ccccc2)N1c1ccccc1 | 28.9 µM
Cc1ccc(C2=CC(=O)OC(C[P+](c3ccccc3)(c3ccccc3)c3ccccc3)(c3ccccc3)O2)cc1 (stereo not drawn) | 27.4 µM
O=c1oc2cc(O)ccc2c(O)c1C(c1ccccc1)c1c(O)c2ccc(O)cc2oc1=O | > 100 µM
O=C1c2cc(-c3ccccc3)cnc2S(=O)(=O)N1c1ccc(Br)cc1 | > 100 µM
O=C(NCP(=O)(Oc1ccccc1)Oc1ccccc1)OCc1ccccc1 | > 100 µM
CC(=NNC(=S)Nc1ccccc1)c1cccc(C(C)=NNC(=S)Nc2ccccc2)n1 | > 50.2 µM
CC(C)c1cc2c(c(O)c1O)[C@@]1(C(=O)O)CCCC(C)(C)[C@@H]1CC2 | 36.9 µM
COC1=CC(=O)c2c(c(-c3nc(C)cs3)cn2C)C1=O | 20.5 µM
Cc1c(O)nc(-n2[nH]c3c(c2=O)CCCC3)[nH]c1=O | > 100 µM
C=CCn1c(=O)c(C(=O)Nc2nc(C34CC5CC(CC(C5)C3)C4)cs2)c(O)c2ccccc21 | > 100 µM
CCOS(C)(=O)=O | > 100 µM
C=CCc1cc(-c2nc(=S)[nH][nH]2)ccc1N=NNc1ccc(C(=O)O)cc1 | > 100 µM
O=C(O)CN1CCNCCN(CC(=O)O)CCN(CC(=O)O)CCNCC1 | > 100 µM
CC(NC(=O)Cc1ccccc1)NC(=O)C(C)C(=O)Nc1ccccc1 (stereo not drawn) | > 100 µM
CC(C)(C)[Si](C)(C)OCC1OC(n2ccc(=O)[nH]c2=O)C(O[Si](C)(C)C(C)(C)C)/C1=C/C#N (stereo not drawn) | > 100 µM
Nc1ccc(N=Nc2c(S(=O)(=O)O)cc3ccccc3c2S(=O)(=O)O)cc1 | > 100 µM

test system: CCRF-CEM leukemia; assay: NCI anticancer screen, dose series, 48 h

Structure (SMILES) | TGI
CC1=CCC([C@@](C)(O)CCCC(C)(C)N=C=S)CC1 (stereo partly drawn) | 48.9 µM
CCN1CN(c2ccccc2)C2(CCN(CC3COc4ccccc4O3)CC2)C1=O (stereo not drawn) | 83.3 µM
N[C@@H](Cc1ccccc1)C(=O)N1CCC[C@@H]1P(=O)(Oc1ccccc1)Oc1ccccc1 | > 100 µM
O=c1[nH][nH]c(=O)n1CCCCCCn1c(=O)[nH][nH]c1=O | > 100 µM
C[C@H](CCC(=O)O)[C@H]1CC[C@H]2[C@@H]3C(=O)C[C@@H]4C[C@H](O)CC[C@]4(C)[C@H]3C[C@H](O)[C@]12C | > 100 µM
COc1ccc(-c2nc(SCC(=O)NNC(=S)Nc3ccccc3)[nH]c2-c2ccc(OC)cc2)cc1 | > 100 µM
COC(=O)/C=C\C(C#N)(C#N)N=Cc1ccc(C)cc1 | 2.1 µM
COc1ccc(N2C(=O)CC(=O)N(NC(=O)C(C)Oc3ccccc3C)C2=S)cc1 (stereo not drawn) | > 100 µM
COc1cc(OC)cc(C(=O)CC(=O)c2cc(OC)cc(OC)c2)c1 | > 100 µM
O=C1OC(C2Cc3ccc4ccccc4c3C2=O)c2ccccc21 (stereo not drawn) | > 100 µM
C/C(=N\N=C1/C(=O)OC(c2ccccc2)=C1C(=O)c1ccccc1)c1ccc([N+](=O)[O-])cc1 | 75.1 µM
O=C(O)[C@H]1CCCN1CP(=O)(O)CN1CCC[C@@H]1C(=O)O | > 100 µM
O=S(=O)(O)C(CO)c1ccccc1 (stereo not drawn) (tested in a mixture with another compound) | > 100 µM
Cc1nc(C)c(N2CCN([N+](=O)[O-])CC2)c(=O)[nH]1 | > 100 µM
Cc1nn(-c2ccccc2)c2c1C(c1cc3ccccc3nc1Cl)NC(=O)N2 (stereo not drawn) | 71.6 µM
Cc1cc(/N=C/c2ccc(N(C)C)cc2)n(-c2ccccc2)n1 | > 100 µM
O=C(/C=C/c1ccccc1)Oc1ccc(C(=O)/C=C/c2ccccc2)cc1 | 10.9 µM
COC(=O)C(Cc1ccc2c(c1)CCC2)Cc1ccc2c(c1)CCC2 | > 100 µM
C/C(C[n+]1ccccc1)=N\N=C(N)N | > 100 µM
O=[N+]([O-])C(=C(Nc1cccc2cccnc12)Nc1cccc2cccnc12)C(Cl)=C(Cl)Cl | > 100 µM

Structure (SMILES) | TGI
CNc1cc2c(c3ccccc13)C(CCl)CN2C(=O)c1cc2cc(OC)c(OC)c(OC)c2[nH]1 (stereo not drawn) | 0.142 µM
NCCCN1c2ccccc2Sc2ccc(Cl)cc21 | > 10 µM
CCOC(=O)c1cccc(N=Nc2nc[nH]c2/C=C/C(=O)OC)c1 | > 100 µM
O=C(O)CN1CCN2CCCCCN(CC1)CCN(CC(=O)O)CC2 | > 100 µM
Cc1cccc(C)c1NC(=O)C(Cc1c[nH]c2ccccc12)NC(=O)OCc1ccccc1 (stereo not drawn) | 76.9 µM
N#CC(C#N)=C1SC(=Nc2ccccc2)C(=Nc2ccccc2)N1c1ccccc1 | 6.35 µM
Cc1ccc(C2=CC(=O)OC(C[P+](c3ccccc3)(c3ccccc3)c3ccccc3)(c3ccccc3)O2)cc1 (stereo not drawn) | 99.4 µM
O=c1oc2cc(O)ccc2c(O)c1C(c1ccccc1)c1c(O)c2ccc(O)cc2oc1=O | > 100 µM
O=C1c2cc(-c3ccccc3)cnc2S(=O)(=O)N1c1ccc(Br)cc1 | > 100 µM
O=C(NCP(=O)(Oc1ccccc1)Oc1ccccc1)OCc1ccccc1 | > 100 µM
CC(=NNC(=S)Nc1ccccc1)c1cccc(C(C)=NNC(=S)Nc2ccccc2)n1 | > 100 µM
CC(C)c1cc2c(c(O)c1O)[C@@]1(C(=O)O)CCCC(C)(C)[C@@H]1CC2 | 42.3 µM
COC1=CC(=O)c2c(c(-c3nc(C)cs3)cn2C)C1=O | 35.1 µM
Cc1c(O)nc(-n2[nH]c3c(c2=O)CCCC3)[nH]c1=O | > 100 µM
C=CCn1c(=O)c(C(=O)Nc2nc(C34CC5CC(CC(C5)C3)C4)cs2)c(O)c2ccccc21 | > 100 µM
CCOS(C)(=O)=O | > 100 µM
C=CCc1cc(-c2nc(=S)[nH][nH]2)ccc1N=NNc1ccc(C(=O)O)cc1 | > 100 µM
O=C(O)CN1CCNCCN(CC(=O)O)CCN(CC(=O)O)CCNCC1 | > 100 µM
CC(C)(C)[Si](C)(C)OCC1OC(n2ccc(=O)[nH]c2=O)C(O[Si](C)(C)C(C)(C)C)/C1=C/C#N (stereo not drawn) | > 100 µM
Nc1ccc(N=Nc2c(S(=O)(=O)O)cc3ccccc3c2S(=O)(=O)O)cc1 | > 100 µM
